# Measured values from US20230026271A1, “Piperazine Compounds for Inhibiting CPS1” (Eisai R&D Management Co., Ltd., priority 2019, published 2023).
# Molecular target: T1, CPS1 (Homo sapiens, UniProt P31327)
# T1 construct: The full length, human CPS1 gene was cloned into pFastBac HTA; His6 (from the pFastBac HTA vector); made in house; host or cells: SF21 insect cells (baculovirus, Bac-to-bac)
# T1 sequence (P31327 39-1500): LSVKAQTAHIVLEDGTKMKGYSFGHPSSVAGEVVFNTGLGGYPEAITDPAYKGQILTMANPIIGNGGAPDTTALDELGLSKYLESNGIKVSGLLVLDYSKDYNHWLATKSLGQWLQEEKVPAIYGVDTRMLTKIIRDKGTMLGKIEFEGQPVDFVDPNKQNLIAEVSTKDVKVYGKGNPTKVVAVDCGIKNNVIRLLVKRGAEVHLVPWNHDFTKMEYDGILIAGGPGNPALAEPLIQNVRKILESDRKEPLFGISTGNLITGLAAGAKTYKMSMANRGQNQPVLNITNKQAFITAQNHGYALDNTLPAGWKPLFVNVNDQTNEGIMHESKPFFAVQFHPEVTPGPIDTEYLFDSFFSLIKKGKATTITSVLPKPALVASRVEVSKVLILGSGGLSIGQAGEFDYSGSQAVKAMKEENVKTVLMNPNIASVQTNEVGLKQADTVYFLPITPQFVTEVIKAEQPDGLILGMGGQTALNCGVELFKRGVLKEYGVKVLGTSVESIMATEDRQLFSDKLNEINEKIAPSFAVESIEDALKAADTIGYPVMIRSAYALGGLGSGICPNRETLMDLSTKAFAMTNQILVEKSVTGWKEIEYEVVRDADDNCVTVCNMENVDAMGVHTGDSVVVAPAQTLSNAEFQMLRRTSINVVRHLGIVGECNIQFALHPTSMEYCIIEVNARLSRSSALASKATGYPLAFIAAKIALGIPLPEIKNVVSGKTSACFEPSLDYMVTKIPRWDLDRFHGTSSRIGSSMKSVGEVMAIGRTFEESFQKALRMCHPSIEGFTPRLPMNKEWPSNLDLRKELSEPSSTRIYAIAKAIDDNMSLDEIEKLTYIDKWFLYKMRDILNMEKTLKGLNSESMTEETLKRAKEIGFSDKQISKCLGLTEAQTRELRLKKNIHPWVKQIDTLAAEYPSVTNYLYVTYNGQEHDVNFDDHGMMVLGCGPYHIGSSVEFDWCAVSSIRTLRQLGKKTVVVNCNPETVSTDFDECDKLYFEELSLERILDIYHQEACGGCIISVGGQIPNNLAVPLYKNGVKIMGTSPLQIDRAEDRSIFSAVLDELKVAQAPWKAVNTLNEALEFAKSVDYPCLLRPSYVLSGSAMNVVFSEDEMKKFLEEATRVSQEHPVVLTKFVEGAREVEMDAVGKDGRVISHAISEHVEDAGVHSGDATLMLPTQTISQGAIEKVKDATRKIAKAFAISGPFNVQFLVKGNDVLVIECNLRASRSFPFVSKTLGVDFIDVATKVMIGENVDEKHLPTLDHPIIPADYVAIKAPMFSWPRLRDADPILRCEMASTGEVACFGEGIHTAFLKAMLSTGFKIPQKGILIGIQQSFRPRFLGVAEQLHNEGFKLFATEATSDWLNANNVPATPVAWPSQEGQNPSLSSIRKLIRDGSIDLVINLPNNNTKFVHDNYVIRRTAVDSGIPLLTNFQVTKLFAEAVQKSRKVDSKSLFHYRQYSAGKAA
# Test: ADP-Glo endpoint assay measuring the ATPase activity of CPS1
# Type: biochemical
# Settings: geometric mean of a minimum of two values; 50 nM CPS1, 10 μM ATP, 0.2 mM NAG, 60 min at room temperature; read-out: ADPGlo IC50
# Method: CPS1 was expressed and purified from SF21 insect cells. The full length, human CPS1 gene was cloned into pFastBac HTA and baculovirus was generated using the Bac-to-bac expression system from Invitrogen. P3 virus was used to infect SF21 insect cells at a density of 1.5E6 cells/mL at an MOI of 2. Cells were harvested by centrifugation after 60 hrs and the cell pellet resuspended in lysis buffer (50 mM glycyl glycine pH 7.4, 20 mM KCl, 1 mM TCEP, 10% glycerol and 20 mM imidazole with Roche protease inhibitor tablet) before being lysed with 40 strokes of a Dounce homogenizer on ice. The insoluble fraction of the lysate was then cleared by centrifugation at 30,000 rpm for 30 min. 40 mL of supernatant was mixed with 2 mL of Ni NTA beads for 45 min at 4° C. in a 50 mL conical tube.
# The beads were washed with 40 mL of wash buffer (50 mM glycyl glycine pH 7.4, 500 mM NaCl, 1 mM TCEP, 10% glycerol and 50 mM imidazole) by centrifugation and resuspension of the beads three times. Bound CPS1 protein was eluted in 6 mL of elution buffer (50 mM glycyl glycine pH 7.4, 500 mM NaCl, 1 mM TCEP, 10% glycerol and 250 mM imidazole) three times. Elution fractions were combined and concentrated using an Amicon Ultra centrifugation filter with a 10,000 molecular weight cut off. Imidazole was removed by repeated concentration and resuspension in storage buffer in the filter device (50 mM glycyl glycine pH 7.4, 500 mM NaCl, 1 mM TCEP and 20% glycerol). CPS1 was concentrated to a final concentration of ˜3 mg/mL before being aliquoted, flash frozen in liquid nitrogen and stored at −80° C.
# CPS1 activity was measured and compounds profiled in an endpoint assay measuring the ATPase activity of CPS1 using the ADP-Glo kit from Promega. 50 nM CPS1 was incubated alone or with varying amounts of tested compound from DMSO stocks in assay buffer (50 mM HEPES pH 7.0, 12.5 mM KHCO3, 1.5 mM (NH4)2SO3, 5 mM MgCl2, 50 mM KCl, 1 mM TCEP, 0.01% TritonX 100, 0.0025% BSA and 0.2 mM NAG) for 20 min in a 3 μL volume in a 384-well plate (Corning Cat#3820). The final concentration of DMSO was 0.04%. The reaction was initiated by the addition of 10 μM ATP, bringing the final volume to 6 μL. After 60 min at room temperature, the reaction was terminated with 3 μL ADP-Glo reagent and incubated at room temperature for 30 min. 3 μL of kinase detection reagent was then added and luminescent signal measured on an Envision plate reader after 30 min.
row,IC50,Compound
1,> 66.7 µM,"COc1ccc(C(=O)N2[C@H](C)CN(C(=O)c3c[nH]c4ccc(O)cc34)C[C@H]2C)c(F)c1 [Compound 98, ((3R,5R)-4-(2-fluoro-4-methoxybenzoyl)-3,5-dimethylpiperazin-1-yl)(5-hydroxy-1H-indol-3-yl)methanone]"
2,0.552 µM,"COc1ccc(C(=O)N2[C@H](C)CN(C(=O)c3c(F)cc(SC)cc3F)C[C@H]2C)c(F)c1 [Compound 16, ((2R,6R)-4-(2,6-Difluoro-4-(methylthio)benzoyl)-2,6-dimethylpiperazin-1-yl)(2-fluoro-4-methoxyphenyl)methanone]"
3,0.42 µM,"COc1ccc(C(=O)N2[C@H](C)CN(C(=O)c3c(F)cc(OC)cc3F)C[C@H]2C)c(F)c1 [Compound 15, ((2R,6R)-4-(2,6-Difluoro-4-methoxybenzoyl)-2,6-dimethylpiperazin-1-yl)(2-fluoro-4-methoxyphenyl)methanone]"
4,22.2 µM,"COc1ccc(C(=O)N2C[C@@H](C)N(C(=O)c3ccc(OC)c(C)c3)[C@H](C)C2)c(F)c1 [Compound 79, ((2R,6R)-4-(2-fluoro-4-methoxybenzoyl)-2,6-dimethylpiperazin-1-yl)(4-methoxy-3-methylphenyl)methanone]"
5,1.47 µM,"COc1ccc(C(=O)N2C[C@@H](C)N(C(=O)c3ccc(OC(C)C)cc3F)[C@H](C)C2)c(F)c1 [Compound 30, ((3R,5R)-4-(2-fluoro-4-isopropoxybenzoyl)-3,5-dimethylpiperazin-1-yl)(2-fluoro-4-methoxyphenyl)methanone]"
6,> 66.7 µM,"COc1ccc(C(=O)N2C[C@@H](C)N(C(=O)c3ccc4ccn(C)c4c3)[C@H](C)C2)c(F)c1 [Compound 99, ((3R,5R)-3,5-dimethyl-4-(1-methyl-1H-indole-6-carbonyl)piperazin-1-yl)(2-fluoro-4-methoxyphenyl)methanone]"
7,19.2 µM,"COc1ccc(C(=O)N2[C@H](C)CN(C(=O)Cc3c(C)[nH]c4ccccc34)C[C@H]2C)c(F)c1 [Compound 78, 1-((3R,5R)-4-(2-fluoro-4-methoxybenzoyl)-3,5-dimethylpiperazin-1-yl)-2-(2-methyl-1H-indol-3-yl)ethanone]"
8,0.19 µM,"COc1ccc(C(=O)N2[C@H](C)CN(C(=O)c3ccc(OC(F)F)cc3F)C[C@H]2C)c(F)c1 [Compound 9, ((2R,6R)-4-(4-(Difluoromethoxy)-2-fluorobenzoyl)-2,6-dimethylpiperazin-1-yl)(2-fluoro-4-methoxyphenyl)methanone]"
9,2.59 µM,"COc1ccc(C(=O)N2[C@H](C)CN(C(=O)c3ccc(F)cc3F)C[C@H]2C)c(F)c1 [Compound 12, ((2R,6R)-4-(2,4-Difluorobenzoyl)-2,6-dimethylpiperazin-1-yl)(2-fluoro-4-methoxyphenyl)methanone]"

# Second part, the compound before the results:
row,Compound,IC50
1,"COc1ccc(C(=O)N2[C@H](C)CN(C(=O)c3ccc4c(c3)NCC4)C[C@H]2C)c(F)c1 [Compound 69, ((3R,5R)-4-(2-fluoro-4-methoxybenzoyl)-3,5-dimethylpiperazin-1-yl)(indolin-6-yl)methanone]",6.43 µM
2,"COc1ccc(C(=O)N2[C@H](C)CN(C(=O)c3c[nH]c4c(C)cccc34)C[C@H]2C)c(F)c1 [Compound 56, ((2R,6R)-2,6-dimethyl-4-(7-methyl-1H-indole-3-carbonyl)piperazin-1-yl)(2-fluoro-4-methoxyphenyl)methanone]",3.28 µM
3,"COc1ccc(C(=O)N2CCN(C(=O)c3ccc(OC)cc3F)[C@@H](C)C2)c(F)c1 [Compound 51, (S)-(2-Methylpiperazine-1,4-diyl)bis((2-fluoro-4-methoxyphenyl)methanone)]",2.78 µM
4,"COc1ccc(C(=O)N2[C@H](C)CN(C(=O)c3ccc(S(C)(=O)=O)cc3F)C[C@H]2C)c(F)c1 [Compound 102, ((2R,6R)-4-(2-fluoro-4-(methylsulfonyl)benzoyl)-2,6-dimethylpiperazin-1-yl)(2-fluoro-4-methoxyphenyl)methanone]",> 66.7 µM
5,"COc1ccc(C(=O)N2[C@H](C)CN(C(=O)c3cc4ccccc4[nH]3)C[C@H]2C)c(F)c1 [Compound 59, ((2R,6R)-4-(1H-indole-2-carbonyl)-2,6-dimethylpiperazin-1-yl)(2-fluoro-4-methoxyphenyl)methanone]",5.58 µM
6,"CCOc1ccc(C(=O)N2C[C@@H](C)N(C(=O)c3ccc(OC)cc3F)[C@H](C)C2)c(F)c1 [Compound 5, ((2R,6R)-4-(4-Ethoxy-2-fluorobenzoyl)-2,6-dimethylpiperazin-1-yl)(2-fluoro-4-methoxyphenyl)methanone]",0.139 µM
7,"COc1ccc(C(=O)N2C[C@@H](C)N(C(=O)c3c(F)cc(SC)cc3F)[C@H](C)C2)c(F)c1 [Compound 25, ((3R,5R)-4-(2,6-difluoro-4-(methylthio)benzoyl)-3,5-dimethylpiperazin-1-yl)(2-fluoro-4-methoxyphenyl)methanone]",0.255 µM
8,"COc1ccc(C(=O)N2C[C@@H](C)N(C(=O)c3ccc(-c4ccn(C)n4)cc3)[C@H](C)C2)c(F)c1 [Compound 80, ((3R,5R)-3,5-dimethyl-4-(4-(1-methyl-1H-pyrazol-3-yl)benzoyl)piperazin-1-yl)(2-fluoro-4-methoxyphenyl)methanone]",22.9 µM
9,"COc1ccc(C(=O)N2[C@H](C)CN(C(=O)c3ccc(OC)cc3OC)C[C@H]2C)c(F)c1 [Compound 100, ((2R,6R)-4-(2,4-dimethoxybenzoyl)-2,6-dimethylpiperazin-1-yl)(2-fluoro-4-methoxyphenyl)methanone]",> 66.7 µM
10,"COc1ccc(C(=O)N2[C@H](C)CN(C(=O)c3c[nH]c4ccc(F)cc34)C[C@H]2C)c(F)c1 [Compound 87, (5-fluoro-1H-indol-3-yl)((3R,5R)-4-(2-fluoro-4-methoxybenzoyl)-3,5-dimethylpiperazin-1-yl)methanone]",37.7 µM
11,"COc1ccc(OC)c2[nH]c(C(=O)N3[C@H](C)CN(C(=O)c4ccc5cc[nH]c5c4)C[C@H]3C)cc12 [Compound 52, ((2R,6R)-4-(1H-indole-6-carbonyl)-2,6-dimethylpiperazin-1-yl)(4,7-dimethoxy-1H-indol-2-yl)methanone]",0.193 µM
